Like-named read-outs stand apart in the source and are kept apart here.
Experiments:
J774A.1 macrophages [1] = test: HDL-mediated cholesterol efflux from macrophage cells; assay type: cell-based, murine; details: 16.5% without lyso-DGTS
Procedure: Cholesterol efflux Fluorometric Assay Kit (Cell-Based), Biovision was used to measure the effect of lyso-DGTS on HDL-cholesterol efflux.
J774.1 macrophage cells were grown in RPMI 1640 media containing 10% FBS in cell culture flask till ˜90% confluence (37° C. incubator containing 5% CO2). The cells were splitted under sterile conditions using basic cell culture techniques and plate to approximately 1×10^5 cells/well in a 96-well plate (white plate with clear bottom) using 100 μl media/well. After 2 h, the cells attached to the plates, washed with RPMI 1640 media (no serum added) and labeled with 50 μl labeling reagent and 50 μl equilibration buffer, supplied by the kit, for 16 h. 100 μl equilibration buffer alone were added to the background control for measuring background fluorescence. The cells were washed with media and treated for another 4-6 h with 100 μl of RPMI 1640 media containing HDL (25 μg protein) preincubated with lyso-DGTS at various concentrations (0, 10, 20, 50, and 100 μg/ml) for 4 h. To the negative control was added RPMI 1640 media alone.
The fluorescence of the supernatant was measured (excitation/emission=482/515 nm). The cells were solubilized adding 100 μl of Cell Lysis Buffer and shaking on a plate shaker for 30 min at room temperature, and its fluorescence was also measured.
Cholesterol efflux of the treatments was calculated by dividing the fluorescence intensity of the media by total fluorescence intensity of the cell lysate of the same treatment and media.
HDL removes cholesterol from cells, including macrophages. HDL particles were incubated with lyso-DGTS at different concentrations. The HDL ability to efflux cholesterol from J774A.1 macrophages was measured using flouromtric assay (cell-based cholesterol efflux flouromtric assay kit, supplied by Biovision) and expressed as % of cholesterol efflux. […] The cholesterol removal enhanced from 16.5% (without lyso-DGTS) to 22.5%, 31.5%, 36.5%, and 46.5% after incubation with lyso-DGTS at 10, 20, 50, and 100 μg/ml, respectively (FIG. 8).

J774A.1 macrophages [2] = test: APOA1-mediated cholesterol efflux from macrophage cells; assay type: cell-based, murine
Procedure: J774A.1 cells were incubated for 4 h with RPMI buffer (media), APOA1 (10 μg) preincubated with DMSO or with lyso-DGTS (at final concentration of 10, 20, 50, and 100 μg/ml) for 2 h. Fluorescence was measured in media and cells at excitation/emission 482/515 nm. The cholesterol efflux was expressed as % efflux elicited by cells. Each experiment was repeated separately at least three times. *p<0.05, ***p<0.0001 relative to the control (APOA1 incubated with DMSO; n=3). Statistical analysis by one-way ANOVA and Graphpad prism 5 software.
APOA1 was incubated with lyso-DGTS at different concentrations (0, 10, 20, 50, and 100 μg/ml), and its ability to remove cholesterol from J774A.1 macrophages was measured by fluorometric assay (cell-based Cholesterol Efflux Fluorometric Assay Kit) and expressed as % of cholesterol efflux.

human serum PON1 = molecular target: T1, human serum PON1 (Homo sapiens, UniProt P27169); test: Human serum PON1 lactonase activity (dihydrocoumarin assay); assay type: biochemical; details: 4 h, 37° C., 1.8 units without lyso-DGTS
T1 construct: tissue Industries biologic (Bet-Haemk, Israel); host or cells: human serum
Procedure: 200 μl of human serum diluted by 20 with phosphate-buffered saline (PBS) (PH=7.6) was incubated with lyso-DGTS at various concentrations (0, 1, 5, 10 and 50 μg/ml) for 4 h at 37° C. Then, 10 μl was taken to measure lactonase activity using the dihydrocoumarine assay.
The effect of lyso-DGTS on lactonase activity of human serum PON1 was examined. Human serum was diluted by 20 with PBS buffer and incubated with and without lyso-DGTS at concentrations of 1, 5, 10, and 50 μg/ml for 4 h at 37° C. Lactonase activity of the enzyme was measured using dihydrocoumarin assay. As shown in Example 1, lyso-DGTS increased human serum lactonase activity in a dose dependent manner up to 10 μg/ml, from 1.8 units without lyso-DGTS to 2.16, 2.82, 3.01, and 2.80 units at 1, 5, 10 and 50 μg/ml lyso-DGTS, respectively. The change at 1 μg/ml of lyso-DGTS was not statistically significant (FIG. 2).

APOA1 = APOA1 (Homo sapiens, UniProt P02647); test: APOA1-lyso-DGTS interaction, Trp fluorescence quenching; assay type: binding; details: for Kd: read-out: Binding constant Ka, lyso-DGTS-APOA1 (converted)
Procedure: The Trp-fluorescence-quenching method was further used to examine the interaction between lyso-DGTS and APOA1, the major protein component of HDL. Ka and thermodynamic parameters were also calculated (Table 6). […] The values obtained for n were not affected by temperature and were equal to=1 (Table 6).
The thermodynamic parameters: enthalpy (ΔH), entropy (ΔS), and free energy (ΔG) were calculated to characterize the APOA1-lyso-DGTS interaction type.

Chain of APOA1 (P02647 19-267, species assumed): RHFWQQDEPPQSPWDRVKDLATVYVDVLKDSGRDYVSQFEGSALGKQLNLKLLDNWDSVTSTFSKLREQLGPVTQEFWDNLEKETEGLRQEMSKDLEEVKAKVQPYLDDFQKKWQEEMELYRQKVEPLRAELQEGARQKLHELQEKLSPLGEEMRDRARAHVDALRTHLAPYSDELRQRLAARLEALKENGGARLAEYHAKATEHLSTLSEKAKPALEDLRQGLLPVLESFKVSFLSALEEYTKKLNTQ
T1 sequence (P27169 whole entry): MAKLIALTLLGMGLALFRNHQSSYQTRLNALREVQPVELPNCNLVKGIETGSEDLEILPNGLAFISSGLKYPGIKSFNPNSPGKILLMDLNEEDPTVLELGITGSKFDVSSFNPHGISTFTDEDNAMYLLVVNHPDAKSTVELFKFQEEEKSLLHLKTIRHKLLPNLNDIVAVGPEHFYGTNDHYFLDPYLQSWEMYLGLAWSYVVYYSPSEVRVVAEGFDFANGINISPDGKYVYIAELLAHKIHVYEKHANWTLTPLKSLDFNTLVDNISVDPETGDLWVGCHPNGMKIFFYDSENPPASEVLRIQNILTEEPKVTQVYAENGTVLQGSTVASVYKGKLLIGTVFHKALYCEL

CC/C=C\C/C=C\C/C=C\C/C=C\C/C=C\CCCC(=O)OCC(O)COCCC(C(=O)[O-])[N+](C)(C)C (stereo not drawn) [lyso-DGTS, lyso-diacylglyceryltrimethylhornmoserine]
HDL-mediated cholesterol efflux (J774A.1 macrophages [1]; HDL incubated with 10 μg/ml lyso-DGTS): 22.5% | HDL-mediated cholesterol efflux (J774A.1 macrophages [1]; HDL incubated with 20 μg/ml lyso-DGTS): 31.5% | HDL-mediated cholesterol efflux (J774A.1 macrophages [1]; HDL incubated with 50 μg/ml lyso-DGTS): 36.5% | HDL-mediated cholesterol efflux (J774A.1 macrophages [1]; HDL incubated with 100 μg/ml lyso-DGTS): 46.5% | APOA1-mediated cholesterol efflux (J774A.1 macrophages [2]; APOA1+50 μg/ml lyso-DGTS, p<0.05): ~25% | APOA1-mediated cholesterol efflux (J774A.1 macrophages [2]; APOA1+100 μg/ml lyso-DGTS, p<0.0001): ~35% | human serum PON1 lactonase activity (human serum PON1; 1 μg/ml lyso-DGTS, change not statistically significant): 2.16 units | human serum PON1 lactonase activity (human serum PON1; 5 μg/ml lyso-DGTS): 2.82 units | human serum PON1 lactonase activity (human serum PON1; 10 μg/ml lyso-DGTS): 3.01 units | human serum PON1 lactonase activity (human serum PON1; 50 μg/ml lyso-DGTS): 2.80 units | number of binding sites (n), lyso-DGTS-APOA1 (APOA1; 298 K): 1.01 ± 0.05 | ΔG, lyso-DGTS-APOA1 interaction (APOA1; 298 K): -1.09 kcal/mol | Kd (APOA1; 298 K (25° C.)): 422 µM | number of binding sites (n), lyso-DGTS-APOA1 (APOA1; 310 K): 1.23 ± 0.05 | ΔG, lyso-DGTS-APOA1 interaction (APOA1; 310 K): -1.464 kcal/mol | Kd (APOA1; 310 K (37° C.)): 43.9 µM | ΔH, lyso-DGTS-APOA1 interaction (APOA1; from 298 and 310 K): 8.243 kcal/mol | ΔS, lyso-DGTS-APOA1 interaction (APOA1; from 298 and 310 K): 131.126 J/mol K

Reference: US11591288B2, “Compositions and methods for treating atherosclerotic cardiovascular disease” (GAVISH-GALILEE BIO APPLICATIONS LTD., priority 2017, dated 2023)
